Results from ChEMBL document CHEMBL5678811 (Invest New Drugs, 2014).
Active and inactive are the calls of the source. The calls are words filed in the database; no cut-off is given here.

Assays:
[1] = test system: MV4-11; experiment: Cell cycle arrest in human MV4-11 cells assessed as accumulation of cells at G1-phase at […] measured after 24 hrs by propidium iodide staining based flow cytometry (reference value: 61.42%); assay type: functional; conditions: dose 0.625 µM
[2] = Toxicity in human COLO 205 cells xenografted CD1 nu/nu mouse assessed as decrease in lymphocyte count at 50 mg/kg, po administered daily via gavage for 56 days and measured on day 41 to 69 by hematological analysis; assay type: organism-based; conditions: in vivo, 1344 h, time 41-69 day
[3] = test system: COLO 205; conditions: Mus musculus, CD1, dose 25-50 mg/kg, route po
[4] = test system: MDA-MB-231; experiment: Cell cycle arrest in human MDA-MB-231 cells assessed as accumulation of cells at G2/M-phase at 0.16 uM measured after 24 hrs by propidium iodide staining based flow cytometry (reference value: 11.46%); assay type: functional
[5] = test system: MV4-11; experiment: Cell cycle arrest in human MV4-11 cells assessed as accumulation of cells at S-phase at 1.25 uM measured after 24 hrs by propidium iodide staining based flow cytometry (reference value: 23.35%); assay type: functional
[6] = test system: MV4-11; experiment: Cell cycle arrest in human MV4-11 cells assessed as accumulation of cells at G1-phase at 1.25 uM measured after 24 hrs by propidium iodide staining based flow cytometry (reference value: 61.42%); assay type: functional
[7] = Toxicity in human Calu-6 cells xenografted CD1 nu/nu mouse assessed as body weight loss at 50 mg/kg, po administered once daily via gavage for 12 days followed by gemcitabine addition for 4 days and measured twice per week during compound dosing; assay type: organism-based; conditions: in vivo, 384 h, time 16 day
[8] = test system: Calu-6; conditions: Homo sapiens, dose 50.0 mg/kg, route po, time 21.0 day
[9] = Toxicity in human COLO 205 cells xenografted CD1 nu/nu mouse assessed as change in ileum histology at 50 mg/kg, po administered daily via gavage for 56 days and measured on day 41 to 69 by histopathological analysis; assay type: organism-based; conditions: in vivo, 1344 h, time 41-69 day
[10] = test system: COLO 205; conditions: Mus musculus, CD1, dose 25-50 mg/kg, route po; remark: listed apart in the source
[11] = test system: MCF-10A; experiment: Cell cycle arrest in human MCF-10A cells assessed as accumulation of cells at G1 phase by measuring increase in 2N DNA content measured after 24 hrs by propidium iodide staining based laser-scanning fluorescence cytometry; assay type: toxicity
[12] = test system: MDA-MB-231; experiment: Cell cycle arrest in human MDA-MB-231 cells assessed as accumulation of cells at G2/M-phase at 2.5 uM measured after 24 hrs by propidium iodide staining based flow cytometry (reference value: 11.46%); assay type: functional
[13] = biological target: High affinity nerve growth factor receptor (Homo sapiens) (UniProt P04629); conditions: Sf21, dose 200.0 nM
High affinity nerve growth factor receptor (Homo sapiens), sequence (P04629 33-796 limits assumed): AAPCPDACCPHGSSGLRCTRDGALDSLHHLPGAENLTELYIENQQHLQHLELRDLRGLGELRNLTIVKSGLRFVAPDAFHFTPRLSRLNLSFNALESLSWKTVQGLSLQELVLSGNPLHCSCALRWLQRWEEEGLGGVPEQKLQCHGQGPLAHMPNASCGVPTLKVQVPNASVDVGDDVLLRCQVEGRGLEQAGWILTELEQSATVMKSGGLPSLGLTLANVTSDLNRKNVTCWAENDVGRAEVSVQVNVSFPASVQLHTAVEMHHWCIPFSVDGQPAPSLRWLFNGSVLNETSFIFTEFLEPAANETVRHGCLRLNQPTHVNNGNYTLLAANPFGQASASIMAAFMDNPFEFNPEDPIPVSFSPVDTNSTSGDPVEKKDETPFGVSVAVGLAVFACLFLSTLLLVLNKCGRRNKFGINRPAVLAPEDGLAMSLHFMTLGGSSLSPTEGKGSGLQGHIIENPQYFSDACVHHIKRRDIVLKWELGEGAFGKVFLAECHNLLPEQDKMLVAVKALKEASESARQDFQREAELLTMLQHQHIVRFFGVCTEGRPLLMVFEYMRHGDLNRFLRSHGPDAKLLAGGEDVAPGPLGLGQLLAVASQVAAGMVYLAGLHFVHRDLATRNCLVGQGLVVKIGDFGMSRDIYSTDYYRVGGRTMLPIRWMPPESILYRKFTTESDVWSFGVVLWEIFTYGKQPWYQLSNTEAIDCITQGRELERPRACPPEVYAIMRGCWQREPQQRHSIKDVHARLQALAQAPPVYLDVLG

[14] = Toxicity in human COLO 205 cells xenografted CD1 nu/nu mouse assessed as change in cecum histology at 50 mg/kg, po administered daily via gavage for 2 cycles of 3 weeks on/1 week rest and measured on day 41 to 69 by histopathological analysis; assay type: organism-based; conditions: in vivo, time 41-69 day
[15] = test system: MV4-11; experiment: Cell cycle arrest in human MV4-11 cells assessed as accumulation of cells at G2/M-phase at 0.16 uM measured after 24 hrs by propidium iodide staining based flow cytometry (reference value: 15.23%); assay type: functional
[16] = test system: MV4-11; experiment: Cell cycle arrest in human MV4-11 cells assessed as accumulation of cells at S-phase at 2.5 uM measured after 24 hrs by propidium iodide staining based flow cytometry (reference value: 23.35%); assay type: functional
[17] = test system: COLO 205; conditions: Mus musculus, CD1, dose 50.0 mg/kg, route po
[18] = Toxicity in human COLO 205 cells xenografted CD1 nu/nu mouse assessed as change in jejunum histology at 50 mg/kg, po administered daily via gavage for 2 cycles of 3 weeks on/1 week rest and measured on day 41 to 69 by histopathological analysis; assay type: organism-based; conditions: in vivo, time 41-69 day
[19] = species on record: Mus musculus; conditions: CD1, dose 50.0 mg/kg, route po, time 17.0 day
[20] = test system: MV4-11; experiment: Cell cycle arrest in human MV4-11 cells assessed as accumulation of cells at G2/M-phase at […] measured after 24 hrs by propidium iodide staining based flow cytometry (reference value: 15.23%); assay type: functional; conditions: dose 0.625 µM
[21] = test system: MV4-11; experiment: Cell cycle arrest in human MV4-11 cells assessed as accumulation of cells at G1-phase at 0.04 uM measured after 24 hrs by propidium iodide staining based flow cytometry (reference value: 61.42%); assay type: functional
[22] = test system: MV4-11; experiment: Cell cycle arrest in human MV4-11 cells assessed as accumulation of cells at G2/M-phase at 5 uM measured after 24 hrs by propidium iodide staining based flow cytometry (reference value: 15.23%); assay type: functional
[23] = test system: COLO 205; conditions: Homo sapiens, dose 50.0 mg/kg, route po, time 3.0 weeks
Description: Antitumor activity against human COLO 205 cells xenografted in CD1 nu/nu mouse assessed as tumor growth inhibition at 50 mg/kg, po administered daily via gavage for 2 cycles of 3 weeks on/1 week rest

[24] = biological target: Glycogen synthase kinase-3 beta (Homo sapiens) (UniProt P49841); conditions: dose 200.0 nM
Glycogen synthase kinase-3 beta (Homo sapiens), sequence (P49841 whole entry, looked up): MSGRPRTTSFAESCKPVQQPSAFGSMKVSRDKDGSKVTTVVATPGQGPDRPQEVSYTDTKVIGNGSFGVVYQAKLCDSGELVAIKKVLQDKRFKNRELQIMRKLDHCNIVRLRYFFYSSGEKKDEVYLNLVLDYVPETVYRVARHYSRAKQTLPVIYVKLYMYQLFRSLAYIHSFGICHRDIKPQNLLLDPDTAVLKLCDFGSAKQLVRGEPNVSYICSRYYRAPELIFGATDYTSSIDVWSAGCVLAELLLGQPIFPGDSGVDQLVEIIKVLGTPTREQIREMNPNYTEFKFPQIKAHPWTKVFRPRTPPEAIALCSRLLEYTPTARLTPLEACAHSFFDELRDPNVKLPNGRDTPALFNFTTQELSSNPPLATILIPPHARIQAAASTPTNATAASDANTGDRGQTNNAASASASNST
Description: Inhibition of human GSK3beta relative to control

[25] = test system: COLO 205; conditions: Mus musculus, CD1, dose 50.0 mg/kg, route po; remark: listed apart in the source
[26] = test system: MV4-11; experiment: Cell cycle arrest in human MV4-11 cells assessed as accumulation of cells at S-phase at 0.32 uM measured after 24 hrs by propidium iodide staining based flow cytometry (reference value: 23.35%); assay type: functional
[27] = test system: COLO 205; experiment: Antitumor activity against human COLO 205 cells xenografted in CD1 nu/nu mouse assessed as tumor growth inhibition at 25 to 100 mg/kg, po administered once daily via gavage for 21 days measured twice per week during compound dosing; assay type: functional, organism-based; conditions: dose 25-100 mg/kg, time 21.0 day
[28] = test system: MV4-11; experiment: Cell cycle arrest in human MV4-11 cells assessed as accumulation of cells at G1-phase at 5 uM measured after 24 hrs by propidium iodide staining based flow cytometry (reference value: 61.42%); assay type: functional
[29] = test system: MV4-11; experiment: Cell cycle arrest in human MV4-11 cells assessed as accumulation of cells at S-phase at […] measured after 24 hrs by propidium iodide staining based flow cytometry (reference value: 23.35%); assay type: functional; conditions: dose 0.625 µM

With `CCN1CCN(Cc2ccc(Nc3ncc(F)c(-c4cc(F)c5nc(C)n(C(C)C)c5c4)n3)nc2)CC1` [ABEMACICLIB] the Activity [1] was 94.63%, the Activity [2] was “Non-Toxic” and the inhibition [3] was “Dose-Dependent Effect”. For the same compound, the Activity [4] was 4.02%, the Activity [5] was 4.18% and the Activity [6] was 93.98%. The Activity [7] was “Non-Toxic”, the TGI [8] was “Active” and the Activity [9] was “Non-Toxic”. For the same compound, the inhibition [10] was “Dose-Dependent Effect”, the Activity [11] was “Toxic” and the Activity [12] was 5.77%. The inhibition [13] was greater than 90%, the Activity [14] was “Non-Toxic” and the Activity [15] was 2.73%. For the same compound, the Activity [16] was 2.99%, the inhibition [17] was “Active” and the Activity [18] was “Non-Toxic”. For the same compound, the inhibition [19] was “inactive”, the Activity [20] was 1.78% and the Activity [21] was 77.47%. For the same compound, the Activity [22] was 0.54%, the TGI [23] was “Active” and the inhibition [24] was greater than 90%. For the same compound, the inhibition [25] was “Active”, the Activity [26] was 2.68% and the TGI [27] was “Active”. It also gave an Activity [28] of 95.56% and an Activity [29] of 3.6%.
